Where two headings read alike, the source gives them in different places.
Legend:
[1] = molecular target: T1, Human soluble guanylate cyclase enzyme (hsGC) (Homo sapiens, UniProt Q02108+Q02153); assay: Purified human sGC enzyme synergy assay in the presence of 1 μM sodium nitroprusside (SNP); format: biochemical; conditions: compound at 30 μM, presence of 1 μM SNP; Table 5A
T1 construct: purchased Enzo Inc. ALX-201-177
T1 sequence (Q02153 1-619): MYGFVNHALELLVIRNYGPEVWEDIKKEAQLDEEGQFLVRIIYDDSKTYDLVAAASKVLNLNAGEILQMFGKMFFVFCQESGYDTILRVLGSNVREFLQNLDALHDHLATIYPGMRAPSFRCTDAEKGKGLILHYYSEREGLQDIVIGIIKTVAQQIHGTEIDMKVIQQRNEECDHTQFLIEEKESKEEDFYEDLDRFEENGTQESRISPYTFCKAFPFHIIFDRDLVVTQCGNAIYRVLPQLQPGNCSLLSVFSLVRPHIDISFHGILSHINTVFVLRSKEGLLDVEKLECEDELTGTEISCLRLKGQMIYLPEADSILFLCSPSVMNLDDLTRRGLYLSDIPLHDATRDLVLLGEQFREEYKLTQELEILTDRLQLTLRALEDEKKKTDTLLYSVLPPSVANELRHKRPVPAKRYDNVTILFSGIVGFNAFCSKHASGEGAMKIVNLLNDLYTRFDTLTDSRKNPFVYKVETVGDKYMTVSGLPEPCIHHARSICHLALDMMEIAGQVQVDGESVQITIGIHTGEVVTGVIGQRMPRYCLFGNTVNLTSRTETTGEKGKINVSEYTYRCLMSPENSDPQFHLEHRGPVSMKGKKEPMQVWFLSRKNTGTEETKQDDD
T1 sequence (Q02108 1-690): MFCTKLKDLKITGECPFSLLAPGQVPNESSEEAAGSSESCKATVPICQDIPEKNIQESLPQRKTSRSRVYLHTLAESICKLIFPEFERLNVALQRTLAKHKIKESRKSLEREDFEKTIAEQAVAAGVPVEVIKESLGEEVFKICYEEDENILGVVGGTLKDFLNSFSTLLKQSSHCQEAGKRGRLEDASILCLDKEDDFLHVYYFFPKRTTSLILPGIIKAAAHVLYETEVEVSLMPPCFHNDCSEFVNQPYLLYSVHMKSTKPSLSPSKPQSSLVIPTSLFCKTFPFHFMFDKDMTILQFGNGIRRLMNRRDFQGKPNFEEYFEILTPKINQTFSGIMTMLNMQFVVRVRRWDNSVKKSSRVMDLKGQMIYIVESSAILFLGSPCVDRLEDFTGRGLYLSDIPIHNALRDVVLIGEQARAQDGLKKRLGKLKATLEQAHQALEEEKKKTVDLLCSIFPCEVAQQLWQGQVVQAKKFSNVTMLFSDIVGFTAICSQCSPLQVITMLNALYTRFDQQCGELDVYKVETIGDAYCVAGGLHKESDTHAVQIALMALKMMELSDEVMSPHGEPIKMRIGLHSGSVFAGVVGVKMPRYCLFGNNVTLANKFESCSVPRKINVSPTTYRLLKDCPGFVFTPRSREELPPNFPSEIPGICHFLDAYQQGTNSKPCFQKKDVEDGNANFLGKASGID
Experimental: (§1) Human soluble guanylate cyclase enzyme (hsGC) obtained from Enzo Inc. (P/N: ALX-201-177) was used to evaluate the activity of test compounds. The assay reactions contained 0.1 M Tris (pH 8.0), 0.5 mg/mL BSA (pH 8.0), 2 mM DTT, 2 mM MgCl2, 300 μM GTP, 1 mM 3-isobutyl-1-methylxanthine (IBMX) and 5 ng human soluble guanylate cyclase enzyme. Test compounds in DMSO were then added (2 μL, 10 or 30 μM final concentration) and incubated (200 μL, 96-well plate format) at 37° C. for 30 minutes. The controls were carried out using 2 μL DMSO. After the 30 minute incubation, the reaction was stopped with the addition of 200 μl of cold methanol. The plate was then centrifuged at 3,200 rpm for 10 minutes at room temperature. Supernatants (200 μL) were collected and transferred to a new 96 well plate for analysis.
(§2) An 8 point cGMP (Sigma-Aldrich P/N: G6129) standard curve was prepared in assay buffer ranging from 0.156-20 μM. Samples for the cGMP standard curve were then diluted with an equal volume of methanol resulting in final cGMP concentrations of 0.078-10 μM.
(§3) The cGMP standard curve was generated using GraphPad Prism Software.
(§4) Calculations: Specific Activity was determined by the amount of cGMP formed (nmoles) per mg of sGC per min. Enzyme “fold-change” was calculated by dividing Specific Activity for test compounds by Specific Activity of DMSO controls.
Biological Measurement by the Purified Human sGC Enzyme Synergy Performed in the Presence of Sodium Nitroprusside (SNP), a Nitric Oxide Donor
Enzyme assays were performed as described above, but was done in the absence or presence of 1 μM sodium nitroprusside (SNP).

[2] = molecular target: T1, Human soluble guanylate cyclase enzyme (hsGC); assay: Purified human sGC enzyme activity assay (without SNP); format: biochemical; conditions: compound at 30 μM, absence of SNP; fold over DMSO control; Table 5A
Experimental: Biological Activity Measurements by the Purified Human sGC Enzyme Activity Assay
as §1, §2, §3, §4

[3] = molecular target: T2, soluble guanylate cyclase (sGC) (Homo sapiens, UniProt Q02108+Q02153); assay: sGC-HEK-cGMP assay (run with SNP incubation); format: cell-based; conditions: for Emax: 10 μM SNP, 100% = 30 μM BAY 41-2272 with 10 μM SNP, read-out: HEK assay Emax-unconstrained (Percent); for HEK MEC-10: concentration that would elicit 10% of the Emax in the presence of 10 μM SNP; for EC50: in the presence of 10 μM SNP
T2 construct: endogenously expressing soluble guanylate cyclase (sGC); endogenous in cells; host or cells: HEK293
T2 sequence (Q02153 1-619): T1 sequence (Q02153 1-619)
T2 sequence (Q02108 1-690): T1 sequence (Q02108 1-690)
Experimental: Biological Activity Measurement by the sGC-HEK-cGMP Assay
(Assay Run with SNP Incubation)
Human embryonic kidney cells (HEK293), endogenously expressing soluble guanylate cyclase (sGC), were used to evaluate the activity of test compounds. Compounds stimulating the sGC receptor should cause an increase in the intracellular concentration of cGMP. HEK 293 cells were seeded in Dulbecco's Modification of Eagle's Medium supplemented with fetal bovine serum (10% final) and L-glutamine (2 mM final) in a 2004 volume at a density of 1×10^5 cells/well in a poly-D-lysine coated 96 well flat bottom plate and grown overnight at 37° C. Medium was aspirated and cells were washed with 1× Hank's Buffered Saline Salt Solution (2004). Cells were then incubated for 15 minutes at 37° C. with 0.5 mM 3-isobutyl-1-methylxanthine (2004). Test article and sodium nitroprusside were then added to the assay mixture (24 each) and incubated at 37° C. for 10 minutes. After the 10 minute incubation, the assay mixture was aspirated and 0.1M HCl (2004) was added to the cells. The plate was incubated at 4° C. for 30 minutes in the 0.1M HCl to stop the reaction and lysed the cells. The plates were then centrifuged at 1,200 g for 5 minutes at room temperature. Supernatants were collected and transferred to a new flat bottom 96 well plate for analysis. Vehicle controls were carried out using DMSO (1%). A known sGC stimulator, BAY 41-2272, was used as the positive control. Samples were diluted with an equal volume of 1 M Ammonium Acetate (pH 7) to neutralize samples for better chromatography. A 2×cGMP standard curve was prepared in 0.1 M HCl and then diluted with an equal volume of 1 M Ammonium Acetate, with the following final concentrations in nM: 1024, 512, 256, 128, 64, 32, 16, 8, 4, 2, 1.cGMP concentrations were determined from each sample using the LC/MS conditions (Table 2 below) and calculated standard curve. EC50 values were calculated from concentration-response curves generated with GraphPad Prism Software.

[4] = Table 3C, top of concentration-response curve not fitted to 100%
[5] = Table 3F, read-out: HEK assay EC50
[6] = top of concentration-response curve not fitted to 100%, Table 3F, read-out: HEK assay EC50-unconstrained
[7] = Table 3A, top of concentration-response curve not fitted to 100%
[8] = Table 3D, read-out: HEK assay EC50
[9] = top of concentration-response curve not fitted to 100%, Table 3D, read-out: HEK assay EC50-unconstrained

Structure (SMILES) | Emax [3, 7] [%] | HEK MEC-10 ([3]; Table 3D) | EC50 [3, 8] [µM] | EC50 [3, 9] [µM] | other results
Fc1cccnc1Cn1nc(-c2ncccn2)cc1-c1ccon1 [Compound 57] | – | – | – | – | Enzyme Activity (increase at 30 μM with SNP) [1]: A (no increase to <2 fold increase); Enzyme Activity (increase at 30 μM without SNP) [2]: A (no increase to <2 fold increase)
CN(C)Cc1ccc(C(=O)Nc2cnc(-c3cc(-c4ccon4)n(Cc4cccc(F)c4F)n3)nc2N)cc1 [Compound 102] | – | – | – | – | Emax [3, 4]: 60 to 80%; HEK MEC-10 ([3]; Table 3F): C (0.1 to <1 μM); EC50 [3, 5]: < 20 µM; EC50 [3, 6]: 1 to 5 µM
Nc1ccnc(-c2cc(-c3ccon3)n(Cc3c(F)ccc(F)c3F)n2)n1 [Compound 15] | 20 to 40 | D (1 to <10 μM) | 40 to 60 | 1 to 5 | –
O=c1[nH]c(-c2nn(Cc3ccccc3F)c(-c3ccon3)c2F)ncc1F [Compound 3] | ≥ 120 | D (1 to <10 μM) | < 20 | 10 to 50 | –
CN(c1ccccc1)S(=O)(=O)c1cnc(-c2cc(-c3ccon3)n(Cc3ccccc3F)n2)[nH]c1=O [Compound 25] | 60 to 80 | C (0.1 to <1 μM) | < 20 | 0.5 to 1 | –
O=c1[nH]c(-c2cc(-c3ccon3)n(Cc3c(F)ccc(F)c3F)n2)ncc1F [Compound 19, 5-fluoro-2-(5-(isoxazol-3-yl)-1-(2,3,6-trifluorobenzyl)-1H-pyrazol-3-yl)pyrimidin-4-ol] | 20 to 40 | D (1 to <10 μM) | 40 to 60 | 0.5 to 1 | –
COc1ccc(C2(C(=O)Nc3cnc(-c4cc(-c5ccon5)n(Cc5ccccc5F)n4)nc3N)CC2)cc1 [Compound 12] | 60 to 80 | B (0.01 to <0.1 μM) | < 20 | 0.01 to 0.5 | –
Oc1nc(-c2cc(-c3ccon3)n(Cc3ccccc3F)n2)ncc1Sc1ccc(Cl)cc1 [Compound 6, 5-(4-chlorophenylthio)-2-(1-(2-fluorobenzyl)-5-(isoxazol-3-yl)-1H-pyrazol-3-yl)pyrimidin-4-ol] | 60 to 80 | C (0.1 to <1 μM) | < 20 | 1 to 5 | –
Nc1nc(-c2cc(-c3ccon3)n(Cc3ccccc3F)n2)ncc1NC(=O)C(Cl)(Cl)Cl [Compound 98] | – | – | – | – | Emax [3, 4]: 60 to 80%; HEK MEC-10 ([3]; Table 3F): B (0.01 to <0.1 μM); EC50 [3, 5]: < 20 µM; EC50 [3, 6]: 0.01 to 0.5 µM
Nc1nc(-c2cc(-c3ccon3)n(Cc3ccccc3F)n2)ncc1NC(=O)C1(c2ccccc2F)CC1 [Compound 9] | 60 to 80 | B (0.01 to <0.1 μM) | < 20 | 0.01 to 0.5 | –
Nc1nc(-c2cc(-c3ccon3)n(Cc3cccc(F)c3F)n2)ncc1NC(=O)c1cc[nH]c1 [Compound 105] | – | – | – | – | Emax [3, 4]: 60 to 80%; HEK MEC-10 ([3]; Table 3F): B (0.01 to <0.1 μM); EC50 [3, 5]: < 20 µM; EC50 [3, 6]: 0.5 to 1 µM
Oc1nc(-c2cc(-c3ccon3)n(Cc3cccc(Cl)c3F)n2)ncc1Cl [Compound 82] | – | – | – | – | Emax ([3]; Table 3B, top of concentration-response curve not fitted to 100%): 40 to 60%; HEK MEC-10 ([3]; Table 3E): B (0.01 to <0.1 μM); EC50 ([3]; Table 3E, read-out: HEK assay EC50): 40 to 60 µM; EC50 ([3]; top of concentration-response curve not fitted to 100%, Table 3E, read-out: HEK assay EC50-unconstrained): 0.01 to 0.5 µM
CN(Cc1ccccc1)S(=O)(=O)c1cnc(-c2cc(-c3ccon3)n(Cc3ccccc3F)n2)[nH]c1=O [Compound 16] | 60 to 80 | C (0.1 to <1 μM) | < 20 | 0.5 to 1 | –
CC1(C(=O)Oc2cnc(-c3cc(-c4ccon4)n(Cc4ccccc4F)n3)nc2N)CC1 [Compound 5] | 80 to 100 | C (0.1 to <1 μM) | < 20 | 10 to 50 | –
Fc1ccccc1Cn1nc(-c2ncc(F)c(Cl)n2)cc1-c1ccon1 [Compound 30, 3-(3-(4-chloro-5-fluoropyrimidin-2-yl)-1-(2-fluorobenzyl)-1H-pyrazol-5-yl)isoxazole] | 60 to 80 | D (1 to <10 μM) | < 20 | 1 to 5 | –

More lines, main results first:

Emax [3, 7] [%] | HEK MEC-10 ([3]; Table 3D) | EC50 [3, 8] [µM] | EC50 [3, 9] [µM] | Structure (SMILES) | other results
– | – | 1200 to 7000 | – | Fc1ccccc1Cn1nc(-c2ncc(Br)c(OCc3ccccc3)n2)cc1-c1ccon1 [Compound 50] | –
60 to 80 | C (0.1 to <1 μM) | < 20 | 1 to 5 | Oc1nc(-c2cc(-c3cocn3)n(Cc3ccccc3F)n2)ncc1F [Compound 48] | –

Source: patent US20150342954A1, “2-BENZYL, 3-(PYRIMIDIN-2-YL) SUBSTITUTED PYRAZOLES USEFUL AS SGC STIMULATORS” (IRONWOOD PHARMACEUTICALS, INC., priority 2011, published 2015)
